Measured values reported in patent US9295732B2, “Conjugated TLR7 and/or TLR8 and TLR2 polycationic agonists” (CAYLA, priority 2013, dated 2016).
“And” between values parts separate entries of the source, which are not always exact repeats. Identical values can stand only once.

Assays:
human TLR7 = target: T1, human TLR7 (Homo sapiens, UniProt Q9NYK1); assay: HEK-Blue hTLR7 NF-κB/AP-1 SEAP reporter assay; format: cell-based; details: HEK-Blue hTLR7 cells, 10 μg/mL to 10 pg/ml, 24 hours, OD at 655 nm, FIG. 1
T1 construct: host or cells: HEK293 (HEK-Blue™ hTLR7)
T1 sequence (Q9NYK1 27-1049): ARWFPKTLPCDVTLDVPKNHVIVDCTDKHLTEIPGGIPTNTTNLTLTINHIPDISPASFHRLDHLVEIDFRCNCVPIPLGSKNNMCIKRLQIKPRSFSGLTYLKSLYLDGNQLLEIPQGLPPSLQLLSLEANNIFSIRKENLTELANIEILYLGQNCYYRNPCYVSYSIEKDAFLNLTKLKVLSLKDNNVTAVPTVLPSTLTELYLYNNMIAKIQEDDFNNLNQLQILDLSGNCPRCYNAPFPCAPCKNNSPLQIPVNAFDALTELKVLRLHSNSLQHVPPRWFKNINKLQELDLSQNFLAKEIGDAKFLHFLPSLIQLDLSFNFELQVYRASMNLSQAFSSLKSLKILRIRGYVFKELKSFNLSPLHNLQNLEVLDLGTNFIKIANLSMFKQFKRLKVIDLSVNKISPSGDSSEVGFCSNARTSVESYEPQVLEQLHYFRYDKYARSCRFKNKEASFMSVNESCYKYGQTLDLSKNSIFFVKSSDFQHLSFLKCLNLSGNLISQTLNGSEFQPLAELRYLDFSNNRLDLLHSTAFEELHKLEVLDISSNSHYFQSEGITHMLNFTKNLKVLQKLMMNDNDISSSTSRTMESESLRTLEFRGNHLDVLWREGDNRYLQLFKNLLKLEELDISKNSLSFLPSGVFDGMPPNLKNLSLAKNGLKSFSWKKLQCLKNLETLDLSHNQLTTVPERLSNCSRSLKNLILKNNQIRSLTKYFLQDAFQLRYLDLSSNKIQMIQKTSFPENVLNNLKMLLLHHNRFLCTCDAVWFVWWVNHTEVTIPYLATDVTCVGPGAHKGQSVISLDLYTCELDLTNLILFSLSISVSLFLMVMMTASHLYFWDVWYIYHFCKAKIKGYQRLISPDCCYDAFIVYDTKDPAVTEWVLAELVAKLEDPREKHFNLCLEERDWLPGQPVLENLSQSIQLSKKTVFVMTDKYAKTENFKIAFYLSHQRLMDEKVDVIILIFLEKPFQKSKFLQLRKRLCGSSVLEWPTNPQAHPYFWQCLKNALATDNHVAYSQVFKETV
Description: (§1) Cell-based assays were carried out using TLR7 and TLR2 reporter cell lines (InvivoGen). The reporter cell lines are engineered HEK293 cells, a human embryonic kidney cell line (ATCC, CRL-1573) that stably express either murine TLR7 (HEK-Blue™ mTLR7) or human TLR7 (HEK-Blue™ hTLR7) or human TLR2 (HEK-Blue™ hTLR2) with an NF-κB-inducible secreted embryonic alkaline phosphatase (SEAP) as the reporter gene. The SEAP reporter gene is under the control of the NF-κB and AP-1-inducible promoter, which, upon treatment with a corresponding TLR ligand and activation of NF-κB and AP-1, induces the production of SEAP. Detection of SEAP is measured following culturing cells in HEK-Blue™ Detection media (InvivoGen). HEK-Blue™ Detection contains a SEAP substrate that when hydrolysed by SEAP produces a colorimetric change allowing for detection of SEAP as the protein is secreted. […] These assays were carried out using RAW-Blue™ Cells (InvivoGen), derived from RAW 264.7 mouse leukemic monocyte macrophage cell line (ATCC, CRL 2278) stably overexpressing a NF-B/AP-1 inducible SEAP reporter constructs.
(§2) To perform the assay, cells were seeded on 96 well microliter plates at 50,000 or 100,000 cells per well for HEK-Blue™ Cells and RAW-Blue™ Cells respectively, and cultured at 37° C. in the presence of the conjugated compounds The TLR7-TLR2 polyamine molecules were prepared as follows: First, stock solutions of the conjugated compounds of the invention were prepared in ethanol or water to a concentration of 10 mg/ml.
(§3) The working dilutions of the conjugated TLR7-TLR2 polyamine agonists made up in water or PBS were directly added to the reporter cell lines at a final concentration ranging from 10 μg/mL to 10 pg/ml and incubated at 37° C. for 24 hours. After 24 hours of incubation, the effect on reporter gene activity was determined by reading the OD at 655 nm using iMark™ Microplate Reader (BIO-RAD).

murine TLR7 = target: T2, murine TLR7 (Mus musculus, UniProt P58681); assay: HEK-Blue mTLR7 NF-κB/AP-1 SEAP reporter assay; format: cell-based; details: HEK-Blue mTLR7 cells, 10 μg/mL to 10 pg/ml, 24 hours, OD at 655 nm, FIG. 2
T2 construct: host or cells: HEK293 (HEK-Blue™ mTLR7)
T2 sequence (P58681 27-1050): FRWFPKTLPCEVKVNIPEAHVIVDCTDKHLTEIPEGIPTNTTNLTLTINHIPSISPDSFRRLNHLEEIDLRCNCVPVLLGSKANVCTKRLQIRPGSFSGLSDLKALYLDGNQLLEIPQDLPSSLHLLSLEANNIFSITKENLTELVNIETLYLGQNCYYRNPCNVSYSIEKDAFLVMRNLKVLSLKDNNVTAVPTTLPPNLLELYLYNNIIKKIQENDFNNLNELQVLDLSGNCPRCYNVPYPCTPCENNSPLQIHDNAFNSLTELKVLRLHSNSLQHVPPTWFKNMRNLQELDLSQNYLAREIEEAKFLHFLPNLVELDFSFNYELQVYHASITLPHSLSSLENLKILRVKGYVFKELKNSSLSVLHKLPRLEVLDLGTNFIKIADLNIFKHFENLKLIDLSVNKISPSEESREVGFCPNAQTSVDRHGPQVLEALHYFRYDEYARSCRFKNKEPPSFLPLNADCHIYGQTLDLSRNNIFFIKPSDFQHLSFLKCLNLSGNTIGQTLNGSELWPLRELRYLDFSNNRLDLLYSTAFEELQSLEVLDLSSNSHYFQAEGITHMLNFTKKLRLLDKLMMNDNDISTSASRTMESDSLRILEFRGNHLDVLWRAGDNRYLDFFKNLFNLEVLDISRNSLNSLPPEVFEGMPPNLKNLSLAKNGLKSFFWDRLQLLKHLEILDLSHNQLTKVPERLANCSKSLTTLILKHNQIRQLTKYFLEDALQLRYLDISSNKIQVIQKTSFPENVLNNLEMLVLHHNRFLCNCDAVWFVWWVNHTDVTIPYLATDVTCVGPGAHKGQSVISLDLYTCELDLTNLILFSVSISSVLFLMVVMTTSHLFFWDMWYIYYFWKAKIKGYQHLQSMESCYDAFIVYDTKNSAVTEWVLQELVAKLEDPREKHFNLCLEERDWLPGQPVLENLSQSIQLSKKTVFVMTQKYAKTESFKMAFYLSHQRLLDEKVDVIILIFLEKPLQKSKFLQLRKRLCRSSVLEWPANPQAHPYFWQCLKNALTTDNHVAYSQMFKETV
Description: as §1, §2, §3

human TLR2 = target: T3, human TLR2 (Homo sapiens, UniProt O60603); assay: HEK-Blue hTLR2 NF-κB/AP-1 SEAP reporter assay; format: cell-based; details: HEK-Blue hTLR2 cells, 10 μg/mL to 10 pg/ml, 24 hours, OD at 655 nm, FIG. 3
T3 construct: host or cells: HEK293 (HEK-Blue™ hTLR2)
Description: as §1, §2, §3

[1] = tested on: endogenous TLR2 and TLR7 in RAW-Blue™ Cells; assay: RAW-Blue Cells NF-κB/AP-1 SEAP reporter assay; format: cell-based, mouse; details: 24 hours, OD at 655 nm, FIG. 4
Description: as §1, §2, §3

plasmid DNA (pDNA) = assay: Gel shift (mobility shift) assay of pDNA complexation; format: binding; details: pDNA:molecule ratio 3:24 (w:w), 0.8% agarose gel, compared to pDNA alone
Description: Then, 10 μl of pDNA:TLR7-TLR2 polyamine molecule complexes and 2 μl of charge buffer were mixed and loaded into wells of a 0.8% agarose gel. Samples were migrated through the gel in TAE buffer under 135 voltage for 21 mins and the migration of the pDNA was visualized following ethidium bromide staining under UV light. The ability of TLR7-TLR2 polyamine molecules to complex/associate with the pDNA was identified by partial or complete retardation of the pDNA migration toward the anode in the gel compared to pDNA alone. […] Ethidium bromide intercalation of pDNA in complex with molecules allowed visualization of complexed pDNA as a smear in the wells of the gel.

[2] = Nanoparticle (lipoplex) size by dynamic light scattering; details: 25° C., triplicate;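 also: lipoplexes of TLR7-TLR2 polyamine conjugates with plasmid DNA, formed over 30 min at room temperature in serum-free medium or 5% glucose, diameter in nm, PDI dimensionless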
B16-F1 tumor = assay: In vivo mouse B16-F1 tumor model, molecule alone; parameters: species or system C57BL/6 mice; details: by day 42, intra-tumoral injections, FIG. 8B
Description: Measurements were performed under gas anesthesia.
The second group received intra-tumoral injections of CL413 molecule alone (a TLR7-TLR2 Pam2CSK4-based molecule). Third and forth groups received intra-tumoral injections of the TLR2 ligand, Pam2CSK4 alone, and the TLR7 ligand alone, respectively. A fifth group received a combined treatment of Pam2CSK4 and TLR7 ligand, in solution at the equivalent molecule quantity of the respective TLR2 and TLR7 moieties in CL413 (in 100 μl Bionolyte G5® with Pluronic® F-68 2%) for a total of 3 injections.

T3 sequence (O60603 21-784): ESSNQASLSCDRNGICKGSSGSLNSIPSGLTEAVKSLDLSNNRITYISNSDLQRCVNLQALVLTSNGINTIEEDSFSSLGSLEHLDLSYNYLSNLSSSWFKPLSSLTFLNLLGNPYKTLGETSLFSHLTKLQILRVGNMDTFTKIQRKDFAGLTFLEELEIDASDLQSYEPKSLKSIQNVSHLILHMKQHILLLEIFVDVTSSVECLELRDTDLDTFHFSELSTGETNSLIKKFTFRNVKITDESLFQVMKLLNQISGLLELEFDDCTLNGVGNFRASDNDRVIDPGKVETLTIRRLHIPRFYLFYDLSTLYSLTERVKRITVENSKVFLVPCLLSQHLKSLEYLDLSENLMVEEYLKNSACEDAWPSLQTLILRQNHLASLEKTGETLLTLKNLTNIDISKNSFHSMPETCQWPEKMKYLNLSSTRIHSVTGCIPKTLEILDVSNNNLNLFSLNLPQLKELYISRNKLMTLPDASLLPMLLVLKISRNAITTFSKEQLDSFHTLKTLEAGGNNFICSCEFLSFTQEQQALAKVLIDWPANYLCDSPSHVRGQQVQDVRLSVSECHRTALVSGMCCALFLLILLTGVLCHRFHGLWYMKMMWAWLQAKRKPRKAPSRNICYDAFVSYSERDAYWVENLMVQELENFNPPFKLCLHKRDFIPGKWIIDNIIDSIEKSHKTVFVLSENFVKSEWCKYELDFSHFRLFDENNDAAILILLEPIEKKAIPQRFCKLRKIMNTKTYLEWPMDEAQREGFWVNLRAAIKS

ability to activate hTLR7 (human TLR7)	ability to activate mTLR7 (murine TLR7)	ability to activate hTLR2 (human TLR2)	Mean Diameter ([2]; complexes with pDNA 3:24 (w:w), dynamic light scattering)	PDI ([2]; polydispersity index of complexes with pDNA 3:24 (w:w))	Compound	ability to activate endogenous TLR2 and TLR7 in RAW-Blue Cells [1]	ability to complex pDNA (retardation of pDNA migration in agarose gel) (plasmid DNA (pDNA))	mice still alive (survival) (B16-F1 tumor)
activate hTLR7	activate mTLR7	activate hTLR2	165.6 nm and 160.0 nm and 148.1 nm	0.255 and 0.241 and 0.23	CCCCCCCCCCCCCCCC(=O)OCC(CSC[C@H](N)C(=O)NCCCC[C@H](NC(=O)CNC(=O)c1ccc(Cn2c(O)nc3c(N)nc(NCCCC)nc32)cc1)C(=O)NCCCNCCCCNCCCN)OC(=O)CCCCCCCCCCCCCCC (stereo partly drawn) [CL487, (6R,13S)-6,27-diamino-13-(2-(4-((6-amino-2-(butylamino)-8-hydroxy-9H-purin-9-yl)methyl)benzamido)acetamido)-7,14-dioxo-4-thia-8,15,19,24-tetraazaheptacosane-1,2-diyl dipalmitate]	activate endogenous TLR2 and TLR7	inability to migrate through an agarose gel	–
–	–	–	–	–	dipalmitoyl-S-glyceryl cysteine-serine-(lysine)4 [Pam2CSK4, reference compound]	–	–	60%
